Take `CC(C)Cc1nn(-c2ccccn2)c2[nH]c3ccccc3c(=O)c12` [Example 2-174, 3-Isobutyl-1-(2-pyridinyl)-1,9-dihydro-4H-pyrazolo[3,4-b]quinolin-4-one]: the melting point – broadly, the temperature, or range, at which the solid turns liquid – lay within 167 to 169 °C.

The compound `Cc1nn(-c2ccccn2)c2nc3ccccc3c(OCC(C)C)c12` [Example 2-20, 4-Isobutoxy-3-methyl-1-(2-pyridinyl)-1H-pyrazolo[3,4-b]quinoline] registered a melting point of 117 to 120 °C. For the compound `Cc1nn(-c2ccccn2)c2[nH]c3ccc(N)cc3c(=O)c12` [Example 2-55, 6-Amino-3-methyl-1-(2-pyridinyl)-1,9-dihydro-4H-pyrazolo[3,4-b]quinolin-4-one], the melting point fell in the range of 260 to 262 °C. In turn, `COc1cc2nc3c(c(C)nn3-c3ccccn3)c(N)c2cc1OC.Cl` had a melting point of 277 to 280 °C.

In turn, `Cc1nn(-c2ccccn2)c2nc3cc(Cl)c(F)cc3c(Cl)c12` [Example 2-96, 4,7-Dichloro-6-fluoro-3-methyl-1-(2-pyridinyl)-1H-pyrazolo[3,4-b]quinoline] showed a melting point of 214 to 215 °C. Then `Cc1nn(-c2ccccn2)c2[nH]c3c(Cl)cc(Cl)cc3c(=O)c12` [Example 2-77, 6,8-Dichloro-3-methyl-1-(2-pyridinyl)-1,9-dihydro-4H-pyrazolo[3,4-b]quinolin-4-one], with 288 to 289 °C; and `COC(=O)Cc1nn(-c2ccccn2)c2nc3ccccc3c(Cl)c12` [Example 2-175, Methyl 2-[4-chloro-1-(2-pyridinyl)-1H-pyrazolo[3,4-b]quinolin-3-yl]acetate], with 152 to 153 °C. Regarding `Cc1ccc2nc3c(c(C)nn3-c3ccccn3)c(Cl)c2c1` [Example 2-32, 4-Chloro-3,6-dimethyl-1-(2-pyridinyl)-1H-pyrazolo[3,4-b]quinoline], the melting point is 158 to 160 °C. As for `Cc1ccc(-n2nc(C)c3c(N)c4ccccc4nc32)nc1` [Example 2-116, 3-Methyl-1-(5-methyl-2-pyridinyl)-1H-pyrazolo[3,4-b]quinolin-4-ylamine], the melting point lay within 229 to 232 °C. In the case of `Cc1nn(-c2ccccn2)c2nc3ccccc3c(C#N)c12` [Example 2-107, 3-Methyl-1-(2-pyridinyl)-1H-pyrazolo[3,4-b]quinoline-4-carbonitrile] it was 210 to 211 °C; in that of `Cc1cccnc1-n1nc(C)c2c(=O)c3ccccc3[nH]c21` [Example 2-120, 3-Methyl-1-(3-methyl-2-pyridinyl)-1,9-dihydro-4H-pyrazolo[3,4-b]quinolin-4-one], 184 to 185 °C; in that of `COc1cccc(-n2nc(C)c3c(N)c4cccc(C)c4nc32)n1` [Example 2-127, 3,8-Dimethyl-1-(6-methoxy-2-pyridinyl)-1H-pyrazolo[3,4-b]quinolin-4-ylamine], 134 to 137 °C. In the case of `Cc1nn(-c2ccccn2)c2[nH]c3c(c(=O)c12)CCCCC3` [Example 2-195, 3-Methyl-1-(2-pyridinyl)-5,6,7,8,9,10-hexahydrocyclohepta[b]pyrazolo[4,3-e]pyridin-4(1H)-one] it was 184 to 185 °C. In turn, `Cc1cccc2c(N)c3c(C)nn(-c4ccccn4)c3nc12.Cl` displayed a melting point of 283 to 286 °C.

The compound `Cc1nn(-c2ccccn2)c2nc(Cc3ccccc3)cc(O)c12` [Example 1-21, 6-Benzyl-3-methyl-1-(2-pyridinyl)-1H-pyrazolo[3,4-b]pyridin-4-ol] displayed a melting point of 168 to 169 °C.

Turning to `Cc1nn(-c2ccccn2)c2[nH]c3cc([N+](=O)[O-])ccc3c(=O)c12` [Example 2-58, 3-Methyl-7-nitro-1-(2-pyridinyl)-1,9-dihydro-4H-pyrazolo[3,4-b]quinolin-4-one], the melting point was greater than 300 °C. In the case of `COc1ccc2nc3c(c(C)nn3-c3ccccn3)c(N)c2c1` [Example 2-42, 6-Methoxy-3-methyl-1-(2-pyridinyl)-1H-pyrazolo[3,4-b]quinolin-4-ylamine] it was 267 to 268 °C; in that of `CCCN(C)c1c2ccccc2nc2c1c(C)nn2-c1ccccn1` [Example 2-9, N-Methyl-N-[3-methyl-1-(2-pyridinyl)-1H-pyrazolo[3,4-b]quinolin-4-yl]-N-propylamine], 110 to 112 °C; in that of `COc1c2ccccc2nc2c1c(C)nn2Cc1ccccn1` [Example 2-190, 4-Methoxy-3-methyl-1-(2-pyridinylmethyl)-1H-pyrazolo[3,4-b]quinoline], 111 to 113 °C. Turning to `CCCCNc1c2ccccc2nc2c1c(C)nn2-c1ccccn1` [Example 2-7, N-Butyl-N-[3-methyl-1-(2-pyridinyl)-1H-pyrazolo[3,4-b]quinolin-4-yl]amine], the melting point fell in the range of 97 to 99 °C.

In the case of `COC(=O)Cc1nn(-c2ccccn2)c2[nH]c3ccccc3c(=O)c12` [Example 2-176, Methyl 2-[4-oxo-1-(2-pyridinyl)-4,9-dihydro-1H-pyrazolo[3,4-b]quinolin-3-yl]acetate], the melting point was 240 to 241 °C. In the case of `Cc1nn(-c2ccccn2)c2nc3ccc([N+](=O)[O-])cc3c(Cl)c12` [Example 2-53, 4-Chloro-3-methyl-6-nitro-1-(2-pyridinyl)-1H-pyrazolo[3,4-b]quinoline] it was 282 °C. `CCCCCc1c2ccccc2nc2c1c(C)nn2-c1ccccn1` [Example 2-106, 3-Methyl-4-pentyl-1-(2-pyridinyl)-1H-pyrazolo[3,4-b]quinoline]: the melting point lay in the range of 121 to 122 °C. In the case of `Cc1nn(-c2ccccn2)c2[nH]c3ccsc3c(=O)c12` [Example 2-156, 3-Methyl-1-(2-pyridinyl)-1,8-dihydro-4H-pyrazolo[3,4-b]thieno[2,3-e]pyridin-4-one], the melting point lay within 228 to 229 °C. In turn, `Cc1nn(-c2ccncc2)c2nc3ccccc3c(Cl)c12` [Example 2-140, 4-Chloro-3-methyl-1-(4-pyridinyl)-1H-pyrazolo[3,4-b]quinoline] gave a melting point of 165 to 168 °C. In the case of `Cc1nn(-c2ccc(Cl)cn2)c2nc3ccccc3c(Cl)c12` [Example 2-113, 4-Chloro-1-(5-chloro-2-pyridinyl)-3-methyl-1H-pyrazolo[3,4-b]quinoline] it was 216 to 217 °C; in that of `Cc1nn(-c2ccccn2)c2ncc(C(=O)Nc3cccc(F)c3)c(O)c12` [Example 1-13, N-(3-Fluorophenyl)-4-hydroxy-3-methyl-1-(2-pyridinyl)-1H-pyrazolo[3,4-b]pyridine-5-carboxamide], greater than 300 °C. With `Cc1nn(-c2ccccn2)c2[nH]c3cc(Cl)ccc3c(=O)c12` [Example 2-74, 7-Chloro-3-methyl-1-(2-pyridinyl)-1,9-dihydro-4H-pyrazolo[3,4-b]quinolin-4-one], the melting point lay within 274 to 275 °C. Then `Cc1cccnc1-n1nc(C)c2c(N)c3ccccc3nc21` [Example 2-119, 3-Methyl-1-(3-methyl-2-pyridinyl)-1H-pyrazolo[3,4-b]quinolin-4-ylamine], with 202 to 205 °C. In the case of `Cc1nn(-c2ccccn2)c2nc3ccsc3c(Cl)c12` [Example 2-155, 4-Chloro-3-methyl-1-(2-pyridinyl)-1H-pyrazolo[3,4-b]thieno[2,3-e]pyridine] it was 230 to 231 °C; in that of `Cc1nn(-c2ccccn2)c2ncc(C(=O)Nc3ccc(F)cc3)c(O)c12` [Example 1-14, N-(4-Fluorophenyl)-4-hydroxy-3-methyl-1-(2-pyridinyl)-1H-pyrazolo[3,4-b]pyridine-5-carboxamide], greater than 300 °C. `Cc1ccc2nc3c(c(C)nn3-c3ccccn3)c(N)c2c1.Cl` came in with a melting point of 287 to 290 °C.

The compound `Cc1cccc2[nH]c3c(c(C)nn3-c3ccccn3)c(=O)c12` [Example 2-31, 3,5-Dimethyl-1-(2-pyridinyl)-1,9-dihydro-4H-pyrazolo[3,4-b]quinolin-4-one] showed a melting point of 183 to 186 °C.

For `COc1c2ccccc2nc2c1c(C)nn2-c1cccnc1` [Example 2-139, 4-Methoxy-3-methyl-1-(3-pyridinyl)-1H-pyrazolo[3,4-b]quinoline], the melting point lay within 126 to 128 °C. In the case of `Cc1nn(-c2ccccn2)c2nc3ccccc3c(NC3CC3)c12.Cl` it was 208 to 211 °C. In the case of `Fc1ccc2nc3c(cnn3-c3ccccn3)c(Cl)c2c1` [Example 2-164, 4-Chloro-6-fluoro-1-(2-pyridinyl)-1H-pyrazolo[3,4-b]quinoline] it was 176 to 179 °C; in that of `Cc1nn(Cc2ccccn2)c2[nH]c3ccccc3c(=O)c12` [Example 2-189, 3-Methyl-1-(2-pyridinylmethyl)-1,9-dihydro-4H-pyrazolo[3,4-b]quinolin-4-one], 269 to 272 °C; in that of `CCCn1c2cc(F)c(F)cc2c(=O)c2c(C)nn(-c3ccccn3)c21` [Example 2-93, 6,7-Difluoro-3-methyl-9-propyl-1-(2-pyridinyl)-1,9-dihydro-4H-pyrazolo[3,4-b]quinolin-4-one], 198 to 200 °C. `Cc1nn(-c2cccc(Cl)n2)c2[nH]c3ccccc3c(=O)c12` [Example 2-110, 1-(6-Chloro-2-pyridinyl)-3-methyl-1,9-dihydro-4H-pyrazolo[3,4-b]quinolin-4-one] displayed a melting point of 251 to 253 °C. Turning to `Cc1nn(-c2ccccn2)c2nc3ccc(Cl)cc3c(Cl)c12` [Example 2-70, 4,6-Dichloro-3-methyl-1-(2-pyridinyl)-1H-pyrazolo[3,4-b]quinoline], the melting point is 233 to 235 °C. The compound `Cc1nn(-c2ccccn2)c2nc3ccc(Cl)cc3c(N)c12` [Example 2-71, 6-Chloro-3-methyl-1-(2-pyridinyl)-1H-pyrazolo[3,4-b]quinolin-4-ylamine] displayed a melting point of 289 to 292 °C. `Cc1nn(-c2ccccn2)c2nc3cc(Cl)ccc3c(Cl)c12` [Example 2-73, 4,7-Dichloro-3-methyl-1-(2-pyridinyl)-1H-pyrazolo[3,4-b]quinoline] displayed a melting point of 203 to 204 °C. As to `COc1cccc(-n2nc(C)c3c(Cl)c4cccc(C)c4nc32)n1` [Example 2-126, 4-Chloro-3,8-dimethyl-1-(6-methoxy-2-pyridinyl)-1H-pyrazolo[3,4-b]quinoline], the melting point was 148 to 151 °C.

(Values after US6949648B2, “Condensed pyrazole derivatives, process for producing the same and use thereof” (Takeda Pharmaceutical Company Limited, priority 2000, dated 2005).)
